Literature values in patent EP1923060A1, “Combinations of a sphingolipid and an HMG-CoA reductase inhibitor for treating hypercholesterolemia” (Nederlandse Organisatie voor …, priority 2006, dated 2008).

Experiments:
[1] = system: galactosamine-injured primary rat hepatocytes; conditions: Kim et al., Phytotherapy Res. (2000) 14:448-451
[2] = in humans
[3] = system: C57bI mice; conditions: intraperitoneal injection; US 2004/0171557

## CCCCCCCCC/C=C\CC/C=C/[C@@H](O)[C@H](CO[C@@H]1O[C@H](CO)[C@@H](O)[C@H](O)[C@H]1O)NC(=O)CCCCCCCCCCCCCCC [LCC, 1-O-(β-D-glucopyranosyl)-(2S,3R,4E,8Z)-2-N-palmityloctadecasphinga-4,8-diene]
[1]
  release into the culture medium of GPT and SDH: reduce the release

## CCCCCCCCCCCCCC[C@@H](O)[C@@H](O)[C@@H](N)CO [phytosphingosine]
[2]
  plasma (VLDL and LDL) cholesterol and triglyceride levels: demonstrated decisively

## glucocerebroside
[3]
  liver fat content: may be reduced
